Measured values taken from publication PMC7736581, “Activation of the IRE1 RNase through remodeling of the kinase front pocket by ATP-competitive ligands” (Nature Communications, 2020).
Read-outs that look alike come from different tables or passages of the source.

Assays:
[1] = system: T1, IRE1 (endogenous, KMS-11); assay: cells; design: XBP1s mRNA by branched DNA assay in KMS-11 cell lysates after compound treatment; conditions: Homo sapiens, KMS-11, 4 h
T1 construct: endogenous full-length in KMS-11 cells
Method: 15-20k KMS-11 cells in RPMI growth media were seeded into 96-well plates and treated with compounds or DMSO control over a period of 4 h the following day. RNA levels of XBP1s and DGAT2 in KMS-11 cell lysates were measured using the QuantiGene 2.0 bDNA assay technology (Thermofisher). See Supplementary Table 4 for sequences of relevant capture probes. Data analysis was carried out against an assay background control with no cell lysate (no-RNA control). In the case of AMG-18, cells were also stimulated with thapsigargin (Tg, 100 nM) 30 min after compound addition. No Tg was used when treating cells with all other compounds. Samples were run in duplicate. To investigate whether this peculiar conformation had any role in the mechanism of activation of G-1749, we evaluated different tails to substitute the ethyl carbamate on the naphthyl moiety (Fig. 3, Supplementary Table 2). […] This is likely due to clashes with residues lining the front pocket, which in turn would force the tails to occupy the back pocket and break the salt bridge, thereby causing RNase inhibition. […] Experiments in KMS-11 cells (Fig. 3b, c, right panels) confirmed the effect of these tail modifications on IRE1 RNase activation. […] The chemical substituents tolerated by the front pocket seem to be very limited: even a minor substitution of the carbamate oxygen atom to a larger [compound left out], from ethyl carbamate to propyl amide (compound 6), or from methyl carbamate to methyl or ethyl amide (compound 4 or 5, respectively), or increasing the tail length by one atom, from ethyl to propyl carbamate (compound 11), is enough to impart a switch from activation to inhibition (Fig. 3b, c). […] RNA cleavage was measured by a kinetic fluorescence assay using an XBP1-like RNA hairpin substrate and IRE1 LKR construct (Q470-L977). Background from the no-protein control was subtracted from signal before calculating fold change. Source data are provided as a Source Data file. Data are presented as the mean for measurements from two independent experiments (n = 2). c RNA levels for IRE1 RNase product XBP1s measured by bDNA assay of lysates from KMS-11 cells treated with compounds for 4 h. Background from the no-RNA control was subtracted from signal before calculating fold change. Source data are provided as a Source Data file. Data are presented as the mean for measurements from two independent experiments (n = 2). d, e Analytical Ultracentrifugation sedimentation velocity (SV-AUC) experiments for (d), IRE1 LKR (Q470-L977) unphosphorylated and autophosphorylated and (e), IRE1 LKR unphosphorylated in the presence of slight excess G-9807 and G-1749. Calculated sedimentation coefficients for IRE1 monomer (3.1 svedbergs) and dimer (4.6 svedbergs) are highlighted by dotted lines. Source data are provided as a Source Data file.

[2] = molecular target: Inositol-Requiring Enzyme 1 (IRE1) (Homo sapiens, UniProt O75460); assay: biochemical; design: gene ERN1; IRE1 cytoplasmic kinase-RNase construct; kinetic fluorescence RNA cleavage (FAM/BHQ XBP1 stem-loop) by IRE1 LKR Q470-L977
Sequence of Inositol-Requiring Enzyme 1 (IRE1) (O75460 547-977): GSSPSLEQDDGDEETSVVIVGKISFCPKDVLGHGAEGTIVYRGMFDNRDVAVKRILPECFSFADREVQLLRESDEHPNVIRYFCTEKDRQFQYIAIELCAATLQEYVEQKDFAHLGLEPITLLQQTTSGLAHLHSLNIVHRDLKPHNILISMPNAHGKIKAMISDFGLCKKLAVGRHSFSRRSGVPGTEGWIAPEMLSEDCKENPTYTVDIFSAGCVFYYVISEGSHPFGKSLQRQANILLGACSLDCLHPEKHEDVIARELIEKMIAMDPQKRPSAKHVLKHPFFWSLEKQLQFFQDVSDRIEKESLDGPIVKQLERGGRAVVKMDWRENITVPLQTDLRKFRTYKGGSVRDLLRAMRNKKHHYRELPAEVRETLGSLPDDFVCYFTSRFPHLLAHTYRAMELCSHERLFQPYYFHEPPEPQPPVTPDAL
Method: A 5′-Carboxyfluorescein (FAM)-and 3′-Black Hole Quencher (BHQ)-labeled single stem-loop mini-substrate containing XBP1 sequence (sequence reported in Supplementary Table 4) was used as substrate for cleavage by IRE1 LKR (Q470-L977) or IRE1 KR (G547-L977) in 20 mM HEPES pH 7.5, 50 mM potassium acetate, 1 mM magnesium acetate, 1 mM dithiothreitol, 0.05% v/v TritonX-100. Concentrations were as follows: 8 nM IRE1 LKR and 200 nM RNA substrate; 22 nM IRE1 KR-0P and 200 nM RNA substrate; 2 nM IRE1 KR 3P and 500 nM RNA substrate. RNA cleavage was measured kinetically over an hour at room temperature as an increase in fluorescence. The final reaction was carried out in 20 µL in 384-well plates. Samples were run in duplicate. To investigate whether this peculiar conformation had any role in the mechanism of activation of G-1749, we evaluated different tails to substitute the ethyl carbamate on the naphthyl moiety (Fig. 3, Supplementary Table 2). […] This is likely due to clashes with residues lining the front pocket, which in turn would force the tails to occupy the back pocket and break the salt bridge, thereby causing RNase inhibition. […] Experiments in KMS-11 cells (Fig. 3b, c, right panels) confirmed the effect of these tail modifications on IRE1 RNase activation. […] The chemical substituents tolerated by the front pocket seem to be very limited: even a minor substitution of the carbamate oxygen atom to a larger [compound left out], from ethyl carbamate to propyl amide (compound 6), or from methyl carbamate to methyl or ethyl amide (compound 4 or 5, respectively), or increasing the tail length by one atom, from ethyl to propyl carbamate (compound 11), is enough to impart a switch from activation to inhibition (Fig. 3b, c). […] RNA cleavage was measured by a kinetic fluorescence assay using an XBP1-like RNA hairpin substrate and IRE1 LKR construct (Q470-L977). Background from the no-protein control was subtracted from signal before calculating fold change. Source data are provided as a Source Data file. Data are presented as the mean for measurements from two independent experiments (n = 2). c RNA levels for IRE1 RNase product XBP1s measured by bDNA assay of lysates from KMS-11 cells treated with compounds for 4 h. Background from the no-RNA control was subtracted from signal before calculating fold change. Source data are provided as a Source Data file. Data are presented as the mean for measurements from two independent experiments (n = 2). d, e Analytical Ultracentrifugation sedimentation velocity (SV-AUC) experiments for (d), IRE1 LKR (Q470-L977) unphosphorylated and autophosphorylated and (e), IRE1 LKR unphosphorylated in the presence of slight excess G-9807 and G-1749. Calculated sedimentation coefficients for IRE1 monomer (3.1 svedbergs) and dimer (4.6 svedbergs) are highlighted by dotted lines. Source data are provided as a Source Data file.

[3] = molecular target: IRE1 LKR (Q470-L977), autophosphorylated (human) (UniProt O75460); assay: AUC; sedimentation velocity; IRE1 LKR at 3.3, 10 and 30 µM without compound; 25 mM HEPES pH 7.5, 250 mM NaCl, 1 mM TCEP; 20 °C, 45,000 rpm, A280; fit to a monomer-dimer equilibrium model (Sedanal); monomer to dimer
[4] = molecular target: IRE1 LKR (Q470-L977), unphosphorylated (human) (UniProt O75460); assay: AUC; sedimentation velocity; unphosphorylated IRE1 LKR at 3.3, 10 and 30 µM with a slight (ca. 15% molar) excess of G-9807 (4, 12, 35 µM); 25 mM HEPES pH 7.5, 250 mM NaCl, 1 mM TCEP; 20 °C; fit to a monomer-dimer equilibrium model; monomer to dimer
[5] = XBP1s mRNA increase, read-out: EC50 (KMS-11 bDNA assay, XBP1s), activators
[6] = RNase activation, read-out: EC50 (RNase biochemical assay), activators
[7] = XBP1s mRNA decrease, read-out: EC50 (KMS-11 bDNA assay, XBP1s), inhibitors
[8] = RNase inhibition, read-out: EC50 (RNase biochemical assay), inhibitors
[9] = RNase inhibition, inhibitor, read-out: EC50 (RNase biochemical assay), inhibitors

| Molecule | EC50 [1, 7] [nM] | EC50 [2, 9] [nM] | also measured |
| --- | --- | --- | --- |
| C/C=C/C(=O)Nc1cccc2c(Oc3ncccc3-c3ccnc(N[C@H]4CCCNC4)n3)c(C)ccc12 [compound 1] |  |  | EC50 [1, 5]: 331 ± 128 nM; EC50 [2, 6]: 7 ± 1 nM |
| COC(=O)Nc1cccc2c(Oc3ncccc3-c3ccnc(N[C@H]4CCCNC4)n3)c(C)ccc12 [compound 2] |  |  | EC50 [1, 5]: 3370 ± 709 nM; EC50 [2, 6]: 4 ± 4 nM |
| Cc1ccc2c(N)cccc2c1Oc1ncccc1-c1ccnc(N[C@H]2CCCNC2)n1 [compound 3, 3] |  |  | EC50 [1, 5]: 3260 ± 480 nM; EC50 ([2]; RNase activation, activator, read-out: EC50 (RNase biochemical assay), activators): 31 ± 23 nM |
| CC(=O)Nc1cccc2c(Oc3ncccc3-c3ccnc(N[C@H]4CCCNC4)n3)c(C)ccc12 [compound 4] | 649 ± 241 |  | EC50 [2, 8]: 8 ± 2 nM |
| CCC(=O)Nc1cccc2c(Oc3ncccc3-c3ccnc(N[C@H]4CCCNC4)n3)c(C)ccc12 [compound 5] | 816 ± 346 |  | EC50 [2, 8]: 28 ± 5 nM |
| CCCC(=O)Nc1cccc2c(Oc3ncccc3-c3ccnc(N[C@H]4CCCNC4)n3)c(C)ccc12 [compound 6] | 221 ± 52 |  | EC50 [2, 8]: 22 ± 35 nM |
| IRE1 LKR (Q470-L977), autophosphorylated (from UniProt O75460 470-977) (domain or fragment) |  |  | Kd [3]: 67000 nM; stoichiometry N [3]: 2 |
| IRE1 LKR (Q470-L977), unphosphorylated (from UniProt O75460 470-977) (domain or fragment) |  |  | stoichiometry N [4]: 2 |

Second part, led by results:

| EC50 [1, 7] [nM] | EC50 [2, 9] [nM] | Molecule | also measured |
| --- | --- | --- | --- |
| 456 ± 226 | 36 ± 5 | Cc1ccc2c(NC(=O)OC(C)C)cccc2c1Oc1ncccc1-c1ccnc(N[C@H]2CCCNC2)n1 [compound 7, 7] |  |
| 465 ± 154 | 18 ± 3 | Cc1ccc2c(NC(=O)OCC(C)C)cccc2c1Oc1ncccc1-c1ccnc(N[C@H]2CCCNC2)n1 [compound 8, 8] |  |
| 1050 ± 372 | 68 ± 21 | Cc1ccc2c(NC(=O)OCC(C)(C)C)cccc2c1Oc1ncccc1-c1ccnc(N[C@H]2CCCNC2)n1 [compound 9, 9] |  |
| 380 ± 109 | 35 ± 5 | Cc1ccc2c(NC(=O)C#CC(C)(C)C)cccc2c1Oc1ncccc1-c1ccnc(N[C@H]2CCCNC2)n1 [compound 10, 10] |  |
| 234 ± 78 |  | CCCOC(=O)Nc1cccc2c(Oc3ncccc3-c3ccnc(N[C@H]4CCCNC4)n3)c(C)ccc12 [compound 11] | EC50 [2, 8]: 29 ± 6 nM |
| 645 ± 111 | 52 ± 12 | Cc1ccc2c(NC(=O)C#CCC(C)(C)C)cccc2c1Oc1ncccc1-c1ccnc(N[C@H]2CCCNC2)n1 [compound 12, 12] |  |
